Data as given in patent publication US12115180B2 (Board of Supervisors of Louisiana State University and …, priority 2020, dated 2024).

Legend:
[1] = pKa and protonation of the side-chain amines; format: physicochemical
[2] = test system: neonatal rat cardiomyocytes (NRCs); experiment: Lactate dehydrogenase release assay for cardiac myocytes; format: cell-based, Sprague Dawley rat; conditions: 5 μM, 10 μM, and 25 μM; 24 h
Procedure: (§1) Cell Lines and Maintenance. Primary Neonatal Rat Cardiomyocyte Culture. The inventors isolated neonatal rat cardiomyocytes (NRCs) from the ventricles of 1-2 day old Sprague Dawley rat pups as described previously. Briefly, ventricular tissues excised from rat pups were digested with collagenase at 4° C. overnight with subsequent digestion in trypsin. Next, cells were preplated to remove cardiac fibroblasts, followed by plating of isolated cardiomyocytes at 1.5×10^6 cells per 10 cm^2 plate in αMEM containing 10% fetal bovine serum (FBS) (Gibco) and 1% antibiotic-antimycotic (Gibco) media. After 24 h, NRCs were maintained in Dulbecco's modified Eagle's medium (DMEM) (Gibco) containing 2% FBS and 1% antibiotic-antimycotic and subjected to different treatments, as described previously. All cell culture treatments were repeated in three independent experiments.
Biochemical Assays. Lactate Dehydrogenase Release Assay for Cardiac Myocytes. Following treatments, culture media were collected and cleared by centrifugation at 5000 g for 10 min. Lactate dehydrogenase (LDH) release into culture media was measured using a cytotoxicity detection kit (Roche®) as per the manufacturer's instructions. Color development was measured using a microplate absorbance reader at an absorbance of 492 nm (Bio-Rad®).

[3] = test system: p53; experiment: Western blot of p53 expression in NRCs; format: cell-based, Sprague Dawley rat; conditions: 10 μM, 24 h
Procedure: as §1
Protein Extraction and Western Blot Analyses. NRCs were washed with PBS and lysed with CelLytic M (Sigma-Aldrich) lysis buffer containing a complete protease inhibitor cocktail (Roche®). […] The protein concentration of the soluble cardiomyocyte lysates was measured using the modified Bradford reagent relative to a BSA standard curve (Bio-Rad®) in a 1 mL cuvette on a DS-11 FX+ spectrophotometer (DeNovix®, Wilmington, DE). […]

Row | SMILES | pKa [1] | fraction protonated ([1]; pH 4.5) [%] | fraction protonated ([1]; pH 5.5) [%] | LDH release (cell death) [2] | p53 protein expression [3]
1 | CCCCN(CCN)CCCC | 4 | 24 | 3 | – | –
2 | NCCN1CCCC1 [PY, 2-pyrrolidine-1-yl-ethyl-amine] | 5.4 | 89 | 44 | – | –
3 | COc1cccc2c1C(=O)c1c(O)c3c(c(O)c1C2=O)C[C@@](O)(C(=O)CO)C[C@@H]3O[C@H]1C[C@H](N)[C@H](O)[C@H](C)O1 [con-DOX, doxorubicin] | – | – | – | dose-dependent increase in cell death | increased p53 expression
